Data taken from ChEMBL document CHEMBL1201862, “PubChem BioAssay data set” (2004).
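Step 1: Grow cells in 96-well plates. Step 2: Expose to compound for 48 hours at 5 concentrations. Step 3: Interpolate endpoints linearly; if unreached, use highest concentration. At the GI50, growth is halved.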 Activity calls are given as the source filed them. Cut-off read from the data, not from the text of the source: active = GI50 up to about 1.1 µM and inactive = higher.

Legend:
Experiment in all cases: NCI anticancer screen, dose series, 48 h
K562 = tested on: K562
UO-31 = tested on: UO-31
HCT-116 = tested on: HCT-116
OVCAR-4 = tested on: OVCAR-4
LOX IMVI = tested on: LOX IMVI
NCI-H23 = tested on: NCI-H23
HL-60 = tested on: HL-60
Malme-3M = tested on: Malme-3M
SNB-78 = tested on: SNB-78
SN12C = tested on: SN12C
SR = tested on: SR
SK-MEL-5 = tested on: SK-MEL-5
NCI-H460 = tested on: NCI-H460
DMS-114 = tested on: DMS-114
SNB-75 = tested on: SNB-75
LXFL 529 = tested on: LXFL 529
M19-MEL = tested on: M19-MEL
SK-OV-3 = tested on: SK-OV-3
OVCAR-8 = tested on: OVCAR-8
OVCAR-5 = tested on: OVCAR-5
DMS-273 = tested on: DMS-273
NCI-H226 = tested on: NCI-H226
UACC-62 = tested on: UACC-62
HOP-62 = tested on: HOP-62
A549 = tested on: A549
CAKI-1 = tested on: CAKI-1
SF-268 = tested on: SF-268
COLO 205 = tested on: COLO 205
SF-539 = tested on: SF-539
U-251 = tested on: U-251
MOLT-4 = tested on: MOLT-4
RPMI-8226 = tested on: RPMI-8226
SNB-19 = tested on: SNB-19
SF-295 = tested on: SF-295
IGROV-1 = tested on: IGROV-1
M14 = tested on: M14
CCRF-CEM = tested on: CCRF-CEM
ACHN = tested on: ACHN
DLD-1 = tested on: DLD-1
OVCAR-3 = tested on: OVCAR-3
SK-MEL-2 = tested on: SK-MEL-2
HOP-92 = tested on: HOP-92
EKVX = tested on: EKVX
SW-620 = tested on: SW-620
786-0 = tested on: 786-0
NCI-H522 = tested on: NCI-H522
HCT-15 = tested on: HCT-15
KM12 = tested on: KM12
HT-29 = tested on: HT-29
SK-MEL-28 = tested on: SK-MEL-28
BT-549 = tested on: BT-549
RXF 393 = tested on: RXF 393
DU-145 = tested on: DU-145
MDA-MB-435 = tested on: MDA-MB-435
UACC-257 = tested on: UACC-257
PC-3 = tested on: PC-3
MDA-MB-231 = tested on: MDA-MB-231
Hs-578T = tested on: Hs-578T
MDA-N = tested on: MDA-N
HCC 2998 = tested on: HCC 2998
T47D = tested on: T47D
NCI/ADR-RES = tested on: NCI/ADR-RES
A498 = tested on: A498
MCF7 = tested on: MCF7
TK-10 = tested on: TK-10

SMILES: COc1cc(C)c2c(c1)CN1CN2Cc2cc(OC)cc(C)c21
- GI50 (K562): 46.9 µM (inactive)
- GI50 (UO-31): 33.1 µM (inactive)
- GI50 (HCT-116): 47.9 µM (inactive)
- GI50 (OVCAR-4): 32.8 µM (inactive)
- GI50 (LOX IMVI): 66.2 µM (inactive)
- GI50 (NCI-H23): 45.8 µM (inactive)
- GI50 (HL-60): 21.4 µM (inactive)
- GI50 (Malme-3M): 67.9 µM (inactive)
- GI50 (SNB-78): 56.8 µM (inactive)
- GI50 (SN12C): 46.3 µM (inactive)
- GI50 (SR): 36.1 µM (inactive)
- GI50 (SK-MEL-5): 3.66 µM (inactive)
- GI50 (NCI-H460): 64.6 µM (inactive)
- GI50 (DMS-114): 21.5 µM (inactive)
- GI50 (SNB-75): 11.2 µM (inactive)
- GI50 (LXFL 529): 60 µM (inactive)
- GI50 (M19-MEL): 38.9 µM (inactive)
- GI50 (SK-OV-3): > 100 µM (inactive)
- GI50 (OVCAR-8): 85.7 µM (inactive)
- GI50 (OVCAR-5): 27.9 µM (inactive)
- GI50 (DMS-273): 38.2 µM (inactive)
- GI50 (NCI-H226): 49.5 µM (inactive)
- GI50 (UACC-62): 29.9 µM (inactive)
- GI50 (HOP-62): 65.6 µM (inactive)
- GI50 (A549): 96.4 µM (inactive)
- GI50 (CAKI-1): > 100 µM (inactive)
- GI50 (SF-268): 48.1 µM (inactive)
- GI50 (COLO 205): 57 µM (inactive)
- GI50 (SF-539): > 100 µM (inactive)
- GI50 (U-251): 50.6 µM (inactive)
- GI50 (MOLT-4): 45 µM (inactive)
- GI50 (RPMI-8226): 43.8 µM (inactive)
- GI50 (SNB-19): < 0.01 µM (active)
- GI50 (SF-295): 52.4 µM (inactive)
- GI50 (IGROV-1): 97.1 µM (inactive)
- GI50 (M14): > 100 µM (inactive)
- GI50 (CCRF-CEM): 65.6 µM (inactive)
- GI50 (ACHN): 37.8 µM (inactive)
- GI50 (DLD-1): 31.4 µM (inactive)
- GI50 (OVCAR-3): 25.5 µM (inactive)
- GI50 (SK-MEL-2): 45.6 µM (inactive)
- GI50 (HOP-92): 35.3 µM (inactive)
- GI50 (EKVX): 32.7 µM (inactive)
- GI50 (SW-620): > 100 µM (inactive)
- GI50 (786-0): 74.1 µM (inactive)
- GI50 (NCI-H522): > 100 µM (inactive)
- GI50 (HCT-15): 34.8 µM
- GI50 (KM12): 58.2 µM (inactive)
- GI50 (HT-29): 74.8 µM (inactive)

SMILES: CC1(C)OC(C(=O)Nc2cc3c4ccccc4ccc3c3ccccc23)C(C(=O)N2CCCCC2)O1 (stereo not drawn)
- GI50 (SK-MEL-28): > 39.4 µM (inactive)
- GI50 (K562): 0.619 µM (active)
- GI50 (BT-549): 47 µM (inactive)
- GI50 (UO-31): 2.17 µM (inactive)
- GI50 (RXF 393): 1.17 µM (inactive)
- GI50 (HCT-116): 0.507 µM (active)
- GI50 (OVCAR-4): 21.5 µM (inactive)
- GI50 (LOX IMVI): 0.344 µM (active)
- GI50 (NCI-H23): > 21.4 µM (inactive)
- GI50 (DU-145): 5.97 µM (inactive)
- GI50 (HL-60): 1.41 µM (inactive)
- GI50 (Malme-3M): > 100 µM (inactive)
- GI50 (SN12C): 9.18 µM (inactive)
- GI50 (MDA-MB-435): 2.7 µM (inactive)
- GI50 (SR): 0.0964 µM (active)
- GI50 (SK-MEL-5): 1.98 µM (inactive)
- GI50 (NCI-H460): 0.385 µM (active)
- GI50 (SNB-75): 2.74 µM (inactive)
- GI50 (UACC-257): > 25.1 µM (inactive)
- GI50 (PC-3): 3.33 µM (inactive)
- GI50 (MDA-MB-231): > 38.9 µM (inactive)
- GI50 (SK-OV-3): 20.6 µM (inactive)
- GI50 (Hs-578T): 3.72 µM (inactive)
- GI50 (OVCAR-8): 0.957 µM (active)
- GI50 (OVCAR-5): > 100 µM (inactive)
- GI50 (MDA-N): 5.94 µM (inactive)
- GI50 (NCI-H226): 60.4 µM (inactive)
- GI50 (UACC-62): 1.17 µM (inactive)
- GI50 (HOP-62): 17.6 µM (inactive)
- GI50 (A549): 1.04 µM (active)
- GI50 (CAKI-1): 0.493 µM (active)
- GI50 (SF-268): 2.43 µM (inactive)
- GI50 (HCC 2998): > 74.1 µM (inactive)
- GI50 (COLO 205): 0.966 µM (active)
- GI50 (T47D): 6.62 µM (inactive)
- GI50 (SF-539): 0.587 µM (active)
- GI50 (U-251): 1.14 µM (inactive)
- GI50 (NCI/ADR-RES): 2.08 µM (inactive)
- GI50 (MOLT-4): 0.574 µM (active)
- GI50 (RPMI-8226): 0.592 µM (active)
- GI50 (SNB-19): 4.2 µM (inactive)
- GI50 (A498): > 23.9 µM (inactive)
- GI50 (SF-295): 1.32 µM (inactive)
- GI50 (IGROV-1): 1.32 µM (inactive)
- GI50 (M14): 3.56 µM (inactive)
- GI50 (CCRF-CEM): 0.537 µM (active)
- GI50 (ACHN): 0.897 µM (active)
- GI50 (MCF7): 1.16 µM (inactive)
- GI50 (OVCAR-3): 2.29 µM (inactive)
- GI50 (SK-MEL-2): 9.18 µM (inactive)
- GI50 (HOP-92): 31.6 µM (inactive)
- GI50 (EKVX): > 54.8 µM (inactive)
- GI50 (SW-620): 0.813 µM (active)
- GI50 (TK-10): > 22.6 µM (inactive)
- GI50 (786-0): 1.77 µM (inactive)
- GI50 (NCI-H522): 0.863 µM (active)
- GI50 (HCT-15): 0.419 µM
- GI50 (KM12): 2.18 µM (inactive)
- GI50 (HT-29): 0.74 µM (active)
